In the NIST ThermoML archive (doi:10.1016/j.jct.2018.10.006):

Experiment: molar heat capacity at constant pressure
Conditions: 101.33 kPa, Crystal 2

O=P([O-])([O-])[O-].[Cs+].[Ni+2] [cesium nickel monophosphate]
Conditions	molar heat capacity at constant pressure [J/K/mol]
5 K, Small (less than 1 g) adiabatic calorimetry	0.898
6 K, Small (less than 1 g) adiabatic calorimetry	1.272
6.21 K, Small (less than 1 g) adiabatic calorimetry	1.255
6.51 K, Small (less than 1 g) adiabatic calorimetry	1.413
6.82 K, Small (less than 1 g) adiabatic calorimetry	1.605
7 K, Small (less than 1 g) adiabatic calorimetry	1.721
7.13 K, Small (less than 1 g) adiabatic calorimetry	1.788
7.51 K, Small (less than 1 g) adiabatic calorimetry	1.987
7.97 K, Small (less than 1 g) adiabatic calorimetry	2.195
8 K, Small (less than 1 g) adiabatic calorimetry	2.203
8.43 K, Small (less than 1 g) adiabatic calorimetry	2.444
8.87 K, Small (less than 1 g) adiabatic calorimetry	2.627
9 K, Small (less than 1 g) adiabatic calorimetry	2.719
9.32 K, Small (less than 1 g) adiabatic calorimetry	2.902
9.77 K, Small (less than 1 g) adiabatic calorimetry	3.176
10 K, Small (less than 1 g) adiabatic calorimetry	3.351
10.24 K, Small (less than 1 g) adiabatic calorimetry	3.492
10.72 K, Small (less than 1 g) adiabatic calorimetry	3.908
11.23 K, Small (less than 1 g) adiabatic calorimetry	4.299
11.76 K, Small (less than 1 g) adiabatic calorimetry	4.756
12.55 K, Small (less than 1 g) adiabatic calorimetry	5.496
13.09 K, Small (less than 1 g) adiabatic calorimetry	6.119
13.82 K, Small (less than 1 g) adiabatic calorimetry	6.826
14.55 K, Small (less than 1 g) adiabatic calorimetry	7.566
15 K, Small (less than 1 g) adiabatic calorimetry	8.032
15.28 K, Small (less than 1 g) adiabatic calorimetry	8.431
16.02 K, Small (less than 1 g) adiabatic calorimetry	9.146
16.77 K, Small (less than 1 g) adiabatic calorimetry	9.844
17.78 K, Small (less than 1 g) adiabatic calorimetry	10.73
18.33 K, Small (less than 1 g) adiabatic calorimetry	11.31
19.12 K, Small (less than 1 g) adiabatic calorimetry	12.07
19.94 K, Small (less than 1 g) adiabatic calorimetry	13.03
20 K, Small (less than 1 g) adiabatic calorimetry	13.06
21.96 K, Small (less than 1 g) adiabatic calorimetry	15.22
24.23 K, Small (less than 1 g) adiabatic calorimetry	17.56
25 K, Small (less than 1 g) adiabatic calorimetry	18.54
26.66 K, Small (less than 1 g) adiabatic calorimetry	20.67
29.06 K, Small (less than 1 g) adiabatic calorimetry	23.5
30 K, Small (less than 1 g) adiabatic calorimetry	24.62
31.53 K, Small (less than 1 g) adiabatic calorimetry	26.28
34.01 K, Small (less than 1 g) adiabatic calorimetry	28.63
35 K, Small (less than 1 g) adiabatic calorimetry	29.56
36.46 K, Small (less than 1 g) adiabatic calorimetry	30.81
38.9 K, Small (less than 1 g) adiabatic calorimetry	33.32
40 K, Small (less than 1 g) adiabatic calorimetry	34.26
41.34 K, Small (less than 1 g) adiabatic calorimetry	35.6
43.79 K, Small (less than 1 g) adiabatic calorimetry	38.06
45 K, Small (less than 1 g) adiabatic calorimetry	39.07
46.25 K, Small (less than 1 g) adiabatic calorimetry	40.1
48.71 K, Small (less than 1 g) adiabatic calorimetry	42.56
50 K, Small (less than 1 g) adiabatic calorimetry	43.9
51.87 K, Small (less than 1 g) adiabatic calorimetry	45.56
53.99 K, Small (less than 1 g) adiabatic calorimetry	47.57
56.52 K, Small (less than 1 g) adiabatic calorimetry	50.12
58.51 K, Small (less than 1 g) adiabatic calorimetry	51.87
60 K, Small (less than 1 g) adiabatic calorimetry	52.93
61.71 K, Small (less than 1 g) adiabatic calorimetry	54.33
63.47 K, Small (less than 1 g) adiabatic calorimetry	55.42
67.49 K, Small (less than 1 g) adiabatic calorimetry	58.66
68.37 K, Small (less than 1 g) adiabatic calorimetry	59.49
70 K, Small (less than 1 g) adiabatic calorimetry	60.41
70.84 K, Small (less than 1 g) adiabatic calorimetry	61.18
73.34 K, Small (less than 1 g) adiabatic calorimetry	62.62
75.82 K, Small (less than 1 g) adiabatic calorimetry	64.02
78.29 K, Small (less than 1 g) adiabatic calorimetry	65.34
80 K, Small (less than 1 g) adiabatic calorimetry	66.38
80.75 K, Small (less than 1 g) adiabatic calorimetry	66.68
81.73 K, Small (less than 1 g) adiabatic calorimetry	67.23
83.21 K, Small (less than 1 g) adiabatic calorimetry	67.91
85.55 K, Small (less than 1 g) adiabatic calorimetry	69.26
85.67 K, Small (less than 1 g) adiabatic calorimetry	69.26
88.13 K, Small (less than 1 g) adiabatic calorimetry	70.96
88.91 K, Small (less than 1 g) adiabatic calorimetry	71.04
90 K, Small (less than 1 g) adiabatic calorimetry	71.65
92.27 K, Small (less than 1 g) adiabatic calorimetry	73.08
95.63 K, Small (less than 1 g) adiabatic calorimetry	74.82
98.99 K, Small (less than 1 g) adiabatic calorimetry	76.75
100 K, Small (less than 1 g) adiabatic calorimetry	77.58
102.34 K, Small (less than 1 g) adiabatic calorimetry	78.95
105.7 K, Small (less than 1 g) adiabatic calorimetry	80.67
109.06 K, Small (less than 1 g) adiabatic calorimetry	82.69
110 K, Small (less than 1 g) adiabatic calorimetry	82.93
112.41 K, Small (less than 1 g) adiabatic calorimetry	84.06
115.76 K, Small (less than 1 g) adiabatic calorimetry	85.56
119.1 K, Small (less than 1 g) adiabatic calorimetry	86.8
120 K, Small (less than 1 g) adiabatic calorimetry	87.3
122.44 K, Small (less than 1 g) adiabatic calorimetry	88.22
125.78 K, Small (less than 1 g) adiabatic calorimetry	89.96
129.12 K, Small (less than 1 g) adiabatic calorimetry	91.04
130 K, Small (less than 1 g) adiabatic calorimetry	91.38
132.46 K, Small (less than 1 g) adiabatic calorimetry	92.37
135.8 K, Small (less than 1 g) adiabatic calorimetry	93.29
139.13 K, Small (less than 1 g) adiabatic calorimetry	94.95
140 K, Small (less than 1 g) adiabatic calorimetry	95.37
142.46 K, Small (less than 1 g) adiabatic calorimetry	96.61
145.78 K, Small (less than 1 g) adiabatic calorimetry	97.86
149.1 K, Small (less than 1 g) adiabatic calorimetry	99.03
150 K, Small (less than 1 g) adiabatic calorimetry	99.52
152.42 K, Small (less than 1 g) adiabatic calorimetry	100.44
155.74 K, Small (less than 1 g) adiabatic calorimetry	101.69
159.04 K, Small (less than 1 g) adiabatic calorimetry	103.27
160 K, Small (less than 1 g) adiabatic calorimetry	103.68
162.35 K, Small (less than 1 g) adiabatic calorimetry	104.76
165.65 K, Small (less than 1 g) adiabatic calorimetry	106.01
168.95 K, Small (less than 1 g) adiabatic calorimetry	107.84
170 K, Small (less than 1 g) adiabatic calorimetry	107.84
172.25 K, Small (less than 1 g) adiabatic calorimetry	108.75
175.54 K, Small (less than 1 g) adiabatic calorimetry	109.83
178.83 K, Small (less than 1 g) adiabatic calorimetry	111.5
180 K, Small (less than 1 g) adiabatic calorimetry	111.83
182.12 K, Small (less than 1 g) adiabatic calorimetry	112.83
185.4 K, Small (less than 1 g) adiabatic calorimetry	113.82
188.67 K, Small (less than 1 g) adiabatic calorimetry	115.24
190 K, Small (less than 1 g) adiabatic calorimetry	115.4
191.94 K, Small (less than 1 g) adiabatic calorimetry	116.32
195.21 K, Small (less than 1 g) adiabatic calorimetry	116.98
198.48 K, Small (less than 1 g) adiabatic calorimetry	118.07
200 K, Small (less than 1 g) adiabatic calorimetry	118.73
201.74 K, Small (less than 1 g) adiabatic calorimetry	119.56
205 K, Small (less than 1 g) adiabatic calorimetry	120.14
208.27 K, Small (less than 1 g) adiabatic calorimetry	121.06
210 K, Small (less than 1 g) adiabatic calorimetry	121.64
211.53 K, Small (less than 1 g) adiabatic calorimetry	122.14
214.79 K, Small (less than 1 g) adiabatic calorimetry	122.56
218.05 K, Small (less than 1 g) adiabatic calorimetry	123.64
220 K, Small (less than 1 g) adiabatic calorimetry	124.38
221.32 K, Small (less than 1 g) adiabatic calorimetry	124.22
224.58 K, Small (less than 1 g) adiabatic calorimetry	125.63
227.84 K, Small (less than 1 g) adiabatic calorimetry	126.38
230 K, Small (less than 1 g) adiabatic calorimetry	126.88
231.11 K, Small (less than 1 g) adiabatic calorimetry	127.13
234.38 K, Small (less than 1 g) adiabatic calorimetry	128.21
237.64 K, Small (less than 1 g) adiabatic calorimetry	129.12
240 K, Small (less than 1 g) adiabatic calorimetry	129.37
240.88 K, Small (less than 1 g) adiabatic calorimetry	129.62
244.15 K, Small (less than 1 g) adiabatic calorimetry	130.7
247.41 K, Small (less than 1 g) adiabatic calorimetry	131.53
250 K, Small (less than 1 g) adiabatic calorimetry	132.03
250.68 K, Small (less than 1 g) adiabatic calorimetry	132.28
253.95 K, Small (less than 1 g) adiabatic calorimetry	133.03
257.21 K, Small (less than 1 g) adiabatic calorimetry	133.7
260 K, Small (less than 1 g) adiabatic calorimetry	134.94
260.47 K, Small (less than 1 g) adiabatic calorimetry	135.11
263.74 K, Small (less than 1 g) adiabatic calorimetry	135.94
266.99 K, Small (less than 1 g) adiabatic calorimetry	137.19
270 K, Small (less than 1 g) adiabatic calorimetry	138.19
270.25 K, Small (less than 1 g) adiabatic calorimetry	138.69
273.15 K, Small (less than 1 g) adiabatic calorimetry	139.27
273.51 K, Small (less than 1 g) adiabatic calorimetry	139.52
276.77 K, Small (less than 1 g) adiabatic calorimetry	140.43
280 K, Small (less than 1 g) adiabatic calorimetry	141.68
280.02 K, Small (less than 1 g) adiabatic calorimetry	141.6
283.26 K, Small (less than 1 g) adiabatic calorimetry	142.68
286.51 K, Small (less than 1 g) adiabatic calorimetry	143.84
289.74 K, Small (less than 1 g) adiabatic calorimetry	145
290 K, Small (less than 1 g) adiabatic calorimetry	145.42
292.94 K, Small (less than 1 g) adiabatic calorimetry	146.5
296.16 K, Small (less than 1 g) adiabatic calorimetry	147.25
298.15 K, Small (less than 1 g) adiabatic calorimetry	148.41
299.38 K, Small (less than 1 g) adiabatic calorimetry	148.58
300 K, Small (less than 1 g) adiabatic calorimetry	149.08
302.59 K, Small (less than 1 g) adiabatic calorimetry	150.41
305.8 K, Small (less than 1 g) adiabatic calorimetry	151.41
309.01 K, Small (less than 1 g) adiabatic calorimetry	152.57
310 K, Small (less than 1 g) adiabatic calorimetry	152.65
312.23 K, Small (less than 1 g) adiabatic calorimetry	153.82
315.44 K, Small (less than 1 g) adiabatic calorimetry	154.82
318.66 K, Small (less than 1 g) adiabatic calorimetry	155.48
320 K, Small (less than 1 g) adiabatic calorimetry	155.9
320.8 K, DSC	155.48
321.8 K, DSC	156.31
321.9 K, Small (less than 1 g) adiabatic calorimetry	156.23
322.8 K, DSC	156.31
323.8 K, DSC	156.31
324.8 K, DSC	157.14
325.15 K, Small (less than 1 g) adiabatic calorimetry	157.39
325.8 K, DSC	157.14
326.8 K, DSC	157.97
327.8 K, DSC	157.97
328.41 K, Small (less than 1 g) adiabatic calorimetry	158.22
328.8 K, DSC	158.81
329.8 K, DSC	158.81
330 K, Small (less than 1 g) adiabatic calorimetry	158.89
330.8 K, DSC	159.64
331.69 K, Small (less than 1 g) adiabatic calorimetry	159.39
331.8 K, DSC	159.64
332.8 K, DSC	159.64
333.8 K, DSC	160.47
334.8 K, DSC	160.47
334.97 K, Small (less than 1 g) adiabatic calorimetry	160.3
335.8 K, DSC	161.3
336.8 K, DSC	161.3
337.8 K, DSC	161.3
338.28 K, Small (less than 1 g) adiabatic calorimetry	161.22
338.8 K, DSC	162.13
339.8 K, DSC	162.13
340 K, Small (less than 1 g) adiabatic calorimetry	161.97
340.8 K, DSC	162.13
341.58 K, Small (less than 1 g) adiabatic calorimetry	162.8
341.8 K, DSC	162.96
342.8 K, DSC	162.96
343.8 K, DSC	162.96
